Measured values reported in paper PMC2923755, “Thermolability of mutant MMACHC protein in the vitamin B12-responsive cblC disorder” (Molecular Genetics and Metabolism, 2010).
Positions count from the first letter of the chain named. Where “and” joins values, the source holds several entries; their conditions need not be identical. Equal entries are not always repeated. Entries after “also recorded” stand apart in the source; their conditions may differ.

Experiments:
His-MMACHC-R161Q [1] = target: T1, His-MMACHC-R161Q (Homo sapiens, UniProt Q9Y4U1, R161Q); assay: UV-visible absorption spectra, base-on/base-off binding; conditions: 20 μM CNCbl, pH 7.0
T1 construct: made in house; host or cells: E. coli BL21 DE3
T1 sequence (Q9Y4U1 1-282 R161Q): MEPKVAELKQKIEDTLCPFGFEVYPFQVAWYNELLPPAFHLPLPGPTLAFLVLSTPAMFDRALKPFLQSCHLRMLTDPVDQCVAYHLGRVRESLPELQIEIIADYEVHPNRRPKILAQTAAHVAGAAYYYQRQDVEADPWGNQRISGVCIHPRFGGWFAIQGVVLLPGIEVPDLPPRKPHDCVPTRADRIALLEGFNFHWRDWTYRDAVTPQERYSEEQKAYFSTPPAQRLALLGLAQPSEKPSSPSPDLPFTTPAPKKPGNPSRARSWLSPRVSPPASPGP

GST-MMACHC-wt [2] = target: T2, GST-MMACHC-wt (Homo sapiens, UniProt Q9Y4U1); assay: as above; conditions: 5 μM cobalamin, 50 μM protein, pH 7.0
T2 construct: made in house
T2 sequence (Q9Y4U1 1-282): T1 sequence (Q9Y4U1 1-282 R161Q) with Q161R
Protocol: (§1) To determine base-on or base-off binding, 5 μM of the appropriate cobalamin or cobinamde in buffer (100 mM Tris, pH 7.0), was incubated in the dark with 400 μl total of 50 μM MMACHC protein (wild-type or R161Q), prepared in the same buffer, or alone, for 5 min at room temperature. In order to retain the high amounts of protein necessary for these experiments, the His-tag (wt and R161Q) or GST-tag (wt protein) was left on. Absorption spectrum measurements were carried out using a MOS-250 spectrometer and recorded using Bio-Kine 32 v4.20 software.
(§2) In order to determine whether the R161Q mutation interferes with the ability of MMACHC to support this transition, we examined the UV–visible absorption spectra for the proteins bound to AdoCbl, as an example of an alkylcobalamin, as well as for the proteins bound to CNCbl and OHCbl. Each cobalamin was added at a concentration of […] (Fig. 5). To determine whether the cobalamin was base-on or base-off, in the case of CNCbl both base-on and base-off spectra were determined for the free vitamin, as previously reported [[12,14]]. […] Confirming our earlier data, GST-tagged MMACHC-wt bound CNCbl in the base-off state (Table 2). […] Both MMACHC-wt and MMACHC-R161Q bound AdoCbl in the base-off state (Fig. 5; Table 2). […] Finally, neither MMACHC-wt nor MMACHC-R161Q modified OHCbl binding, which retained the base-on profile regardless of the MMACHC species present (Fig. 5; Table 2).

His-MMACHC-wt = target: T3, His-MMACHC-wt (Homo sapiens, UniProt Q9Y4U1); assay: as above; conditions: 5 μM cobalamin, 50 μM protein, pH 7.0
T3 construct: made in house; host or cells: E. coli BL21 DE3
T3 sequence (Q9Y4U1 1-282): T1 sequence (Q9Y4U1 1-282 R161Q) with Q161R
Protocol: as §1, §2

His-MMACHC-R161Q [3] = target: T1, His-MMACHC-R161Q; assay: as above; conditions: 5 μM cobalamin, 50 μM protein, pH 7.0
Protocol: […] In order to retain the high amounts of protein necessary for these experiments, the His-tag (wt and R161Q) or GST-tag (wt protein) was left on. Absorption spectrum measurements were carried out using a MOS-250 spectrometer and recorded using Bio-Kine 32 v4.20 software.
as §2

[4] = UV-visible absorption spectra of free cobalamin; assay type: physicochemical; conditions: for α/β-Peak: nm; for γ-Peak: wavelength
Protocol: as §1, §2

GST-MMACHC-wt [5] = target: T2, GST-MMACHC-wt; design: method as in PMID 19700356; conditions: earlier demonstration; cited from earlier work
MMACHC-wt = target: T4, MMACHC-wt (Homo sapiens, UniProt Q9Y4U1); assay: Differential scanning fluorimetry (DSF), stabilization by cobalamins; assay type: binding; conditions: Tm at 50 μM ligand minus Tm at 0 μM ligand
T4 construct: His-tag (N, cleaved yes); made in house; host or cells: E. coli BL21 DE3
T4 sequence (Q9Y4U1 1-282): T1 sequence (Q9Y4U1 1-282 R161Q) with Q161R
Protocol: (§3) DSF was performed and analyzed as described in Niesen et al., with minor modifications. Purified MMACHC proteins were diluted to 0.1 mg/ml (3 μM) in buffer (10 mM HEPES pH 7.5, 0.5 M NaCl, 5% glycerol) with 1:1000 Sypro Orange (Invitrogen) and run in triplicate. The proteins were heated from 5 to 75 °C with a ramp rate of 1 °C/min in a thermocycler (Bio-rad C1000 Thermocycler, CFX96 Real-time system). All graphs were normalized so that minimum fluorescence was set to 0 and maximum fluorescence set to 1. […] Final graphs and AC50’s were generated using Kadeidagraph 4.0 software (Synergy Software, Reading, PA). AC50’s were determined by fitting the ΔTm vs. ligand concentration curves to the equation ΔTm = ΔTm max[S]/(AC50 + [S]) where ΔTm is the change in melting temperature (Tm[protein + ligand] − Tm[protein]), ΔTm max is the maximal change in Tm at saturating (50 μM) ligand concentration and [S] is the ligand concentration.
(§4) Wild-type (MMACHC-wt) and mutant (MMACHC-R161Q) MMACHC were expressed and purified to >95% purity, with His-tag removed, as judged by SDS–PAGE (Fig. 2A). In order to investigate the thermostability of MMACHC we used DSF, a method that measures protein stability and ligand-induced changes in stability [[20,21]]. DSF uses an environmentally sensitive dye, such as Sypro orange, to monitor protein-unfolding caused by heat denaturation. As the protein unfolds, the dye, which has a higher fluorescence quantum yield in nonpolar environments than in aqueous media, binds to hydrophobic regions of the protein, causing a large increase in fluorescence [[22,23]]. Protein stability is expressed as the melting point of the protein (Tm), that is, the transition midpoint of the fluorescence curve, corresponding to the temperature at which half of the protein molecules are folded and half are unfolded. […] Even lower was the stability of MMACHC-R161Q (Tm = 37.1 ± 0.7 °C) (Fig. 2B). The difference in Tm was small but nonetheless significant (p < 0.01). A second difference between the wild-type and mutant proteins was the shape of the unfolding curves, with the unfolding of the mutant protein showing high cooperativity indicating a two-state unfolding mechanism while the unfolding of the wild-type protein stretched over a larger temperature range and comprised two phases (Fig. 2B; also Fig. 3A at 0 μM OHCbl).

MMACHC-R161Q [6] = target: T5, MMACHC-R161Q (Homo sapiens, UniProt Q9Y4U1, R161Q); assay: as above; assay type: binding; conditions: Tm at 50 μM ligand minus Tm at 0 μM ligand; DSF
T5 construct: His-tag (N, cleaved yes); made in house; host or cells: E. coli BL21 DE3
T5 sequence (Q9Y4U1 1-282 R161Q): T1 sequence (Q9Y4U1 1-282 R161Q)
Protocol: as §3, §4

MMACHC-G147D = system: MMACHC-G147D; design: method as in PMID 19700356; conditions: recombinant protein, in words; cited from earlier work
MMACHC-R161Q [7] = target: T5, MMACHC-R161Q; design: method as in PMID 19700356; conditions: cited from earlier work

Base-on/off (His-MMACHC-R161Q [1]): Off | α/β-Peak (His-MMACHC-R161Q [1]; nm): 531 nm | γ-Peak (His-MMACHC-R161Q [1]; wavelength): 359 | Base-on/off (GST-MMACHC-wt [2]): base-off and Off | α/β-Peak (GST-MMACHC-wt [2]; nm): 530 nm | γ-Peak (GST-MMACHC-wt [2]; wavelength): 357 | Base-on/off (His-MMACHC-wt): Off | α/β-Peak (His-MMACHC-wt; nm): 531 nm | γ-Peak (His-MMACHC-wt; wavelength): 358 | α/β-Peak (His-MMACHC-R161Q [3]; nm): 540 nm | γ-Peak (His-MMACHC-R161Q [3]; wavelength): 359 | α/β-Peak ([4]; base-off): 529 nm | γ-Peak ([4]; base-off): 355 nm | α/β-Peak ([4]; base-on): 551 nm | γ-Peak ([4]; base-on): 360 nm | ΔTm max (MMACHC-wt): 3.4 ± 0.6 °C | ΔTm max (MMACHC-R161Q [6]): 1 °C and 1.1 ± 0.6 °C
Substance: Cyanocobalamin [CNCbl]
Base-on/off (His-MMACHC-R161Q [3]): shifted incompletely towards full base-off binding; also recorded: On/Off | binding conformation (base-on/off) (GST-MMACHC-wt [5]): base-off | cobalamin binding (MMACHC-G147D): unable to bind | Kd (MMACHC-R161Q [7]; published Kd, unit printed in b35 only): 20 µM | cobalamin binding (MMACHC-R161Q [7]; recombinant protein, in words): poorly; also recorded: impaired
